Structures can show the parent of a compound that is named as a salt.

The target of the test is T1, intracellular domain of DDR1 (Homo sapiens, UniProt Q08345).
T1 construct: the intracellular domain of DDR1 (in a final concentration of 5 ng/μL) (Carna Biosciences, Inc.); purchased Carna Biosciences, Inc
T1 sequence (Q08345 444-876 isoform Q08345-2 limits assumed): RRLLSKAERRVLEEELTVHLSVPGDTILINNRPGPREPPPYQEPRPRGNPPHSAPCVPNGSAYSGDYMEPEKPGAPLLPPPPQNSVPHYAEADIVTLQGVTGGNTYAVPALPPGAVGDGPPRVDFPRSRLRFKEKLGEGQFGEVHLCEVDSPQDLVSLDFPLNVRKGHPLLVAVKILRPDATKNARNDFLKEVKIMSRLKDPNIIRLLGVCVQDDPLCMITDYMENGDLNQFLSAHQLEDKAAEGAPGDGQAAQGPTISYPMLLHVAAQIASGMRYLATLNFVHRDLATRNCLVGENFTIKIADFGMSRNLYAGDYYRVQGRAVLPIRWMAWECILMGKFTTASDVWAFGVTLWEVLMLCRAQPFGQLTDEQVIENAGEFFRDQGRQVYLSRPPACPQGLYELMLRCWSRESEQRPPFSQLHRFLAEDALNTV
Put plainly: Evaluation of DDR1 inhibition activity with HTRF KinEASE-TK kit. The conditions noted are these: intracellular domain of DDR1 5 ng/μL, ATP 25 mol/L (so in the source), TK Substrate-biotin 1000 nmol/L, room temperature, one hour. Format: biochemical. On the procedure: The DDR1 inhibition activity of the compounds of Examples 1 to 51 was evaluated with HTRF® KinEASE-TK kit (Cisbio Bioassays).
Each test substance was dissolved in dimethyl sulfoxide (hereinafter referred to as DMSO) and then used for the evaluation as described below. Moreover, each of test substances and reagents was diluted in the kinase buffer (Cisbio Bioassays) prepared by adding thereto MgCl2, MnCl2, DTT, and the Supplemental Enzyme buffer (Cisbio Bioassays) to concentrations of 5 mmol/L, 0.5 mmol/L, 0.25 mmol/L, and 50 nmol/L, respectively, and then used. Each test substance (in DMSO in a final concentration of 1%), the intracellular domain of DDR1 (in a final concentration of 5 ng/μL) (Carna Biosciences, Inc.), the phosphate donor ATP (in final concentration of 25 mol/L) (Sigma), and the substrate TK Substrate-biotin (in a final concentration of 1000 nmol/L) (Cisbio Bioassays) were added to a 384-well black plate (Corning) and allowed to react at room temperature for one hour. After completion of the reaction, the TK Antibody-Cryptate (Cisbio Bioassays) and the Streptavidin-XL665 (Cisbio Bioassays) were added thereto and allowed to react at room temperature for one hour. In addition, the plate was provided with a well to which a test substance was not added, and with a well to which the intracellular domain of DDR1 and a test substance were not added.
The fluorescence intensity in each well was measured using a multi-label counter (Envision, PerkinElmer; excitation wavelength: 320 nm, measurement wavelength: 665 nm and 620 nm) to calculate a Ratio (the fluorescence intensity at 665 nm/the fluorescence intensity at 620 nm). The inhibition rate (%) of a test substance at each concentration was calculated based on the formula below. Inhibition rate (%)=([the Ratio obtained from the well containing no test substance]−[the Ratio from a well containing a test substance])/([the Ratio obtained from the well containing no test substance]−[the Ratio obtained from the well containing no intracellular domain of DDR1 and no test substance])×100
The calculated inhibition rates were fitted to a sigmoidal dose-response curve by regression analysis using the Prism 5.04 (GraphPad Software, Inc.) to calculate the ICso0 value of the test substance.
In general terms: In TR-FRET formats the signal depends on donor and acceptor labels being close together.
What is called IC50 is the point on the concentration scale where inhibition reaches its midpoint. A high value points to a need for much substance. For the molecule `NC(=O)c1ccc(Oc2ccccc2CNC(=O)Nc2ccc(CO)c(C(F)(F)F)c2)cc1` [Compound of Example 36, 4-(2-((3-(4-(hydroxymethyl)-5-(trifluoromethyl)phenyl)ureido)methyl)phenoxy)benzamide], the IC50 was 13.2 nM.
With `CN1CCN(Cc2cc(NC(=O)NCc3ccccc3Oc3ccc(C(N)=O)cc3)cc(C(F)(F)F)c2)CC1` [Compound of Example 37, 4-(2-((3-(3-((4-methylpiperazin-1-yl)methyl)-5-(trifluoromethyl)phenyl)ureido)methyl)phenoxy)benzamide], the 50% inhibitory concentration (IC50) was 11.7 nM. The IC50 values of the last two molecules are within 1.5-fold of each other.
Then `CN1CCN(Cc2ccc(NC(=O)NCc3ccccc3Oc3ccc(C(N)=O)cc3)cc2C(F)(F)F)CC1` [Compound of Example 38, 4-(2-((3-(4-((4-methylpiperazin-1-yl)methyl)-3-(trifluoromethyl)phenyl)ureido)methyl)phenoxy)benzamide], with 4.64 nM.
Next, `NC(=O)c1ccc(Oc2ccccc2CNC(=O)Nc2cc(CN3CCNCC3)cc(C(F)(F)F)c2)cc1` [Compound of Example 39, 4-(2-((3-(3-((piperazin-1-ylmethyl)-5-(trifluoromethyl)phenyl)ureido)methyl)phenoxy)benzamide hydrochloride]: 4.2 nM; `NC(=O)c1ccc(Oc2ccccc2CNC(=O)Nc2ccc(CN3CCNCC3)c(C(F)(F)F)c2)cc1` [Compound of Example 40, 4-(2-((3-(4-((piperazin-1-ylmethyl)-5-(trifluoromethyl)phenyl)ureido)methyl)phenoxy)benzamide hydrochloride]: 8.91 nM; `NC(=O)c1ccc(Oc2ccccc2CNC(=O)Nc2cc(C(F)(F)F)ccc2OC2CCNCC2)cc1` [Compound of Example 41, 4-(2-((3-(2-(piperidin-4-yloxy)-5-(trifluoromethyl)phenyl)ureido)methyl)phenoxy)benzamide]: 35.2 nM.
Next, `CNC(=O)c1ccc(Oc2ccccc2CNC(=O)Nc2cccc(C(F)(F)F)c2)cc1` [Compound of Example 42]: 21.5 nM; `CNC(=O)c1ccc(Oc2ccccc2CNC(=O)Nc2cc(C(F)(F)F)ccc2OC2COC2)cc1` [Compound of Example 43, 4-(2-((3-(2-(oxetan-3-yloxy)-5-(trifluoromethyl)phenyl)ureido)methyl)phenoxy)-N-methyl-benzamide]: 78.5 nM; `NC(=O)c1cccc(Oc2ccccc2CNC(=O)Nc2cccc(C(F)(F)F)c2)c1` [Compound of Example 44]: 23.7 nM.
`CCOc1ccc(C(F)(F)F)cc1NC(=O)NCc1ccccc1Oc1ccc(C(N)=O)cc1` [Compound of Example 46]: the 50% inhibitory concentration (IC50) turned out to be 22.5 nM.
Molecule `NC(=O)c1ccc(Oc2ccccc2CNC(=O)Nc2cccc(C(F)(F)F)c2)nc1` [Compound of Example 47, 6-(2-((3-(3-(trifluoromethyl)phenyl)ureido)methyl)phenoxy)nicotinamide] registered an IC50 of 23.4 nM.
Next, `CNC(=O)c1ccc(Oc2ccccc2CNC(=O)Nc2cccc(C(F)(F)F)c2)nc1` [Compound of Example 48, N-methyl-6-(2-((3-(3-(trifluoromethyl)phenyl)ureido)methyl)phenoxy)nicotinamide]: 29.1 nM; `NC(=O)c1ccc(Oc2ccccc2CNC(=O)Nc2cccc(Cl)c2)cc1` [Compound of Example 49, 4-(2-((3-(3-chlorophenyl)ureido)methyl)phenoxy)benzamide]: 19.3 nM.
Next, `COc1ccc(Cl)cc1NC(=O)NCc1ccccc1Oc1ccc(C(N)=O)cc1` [Compound of Example 50]: 12.3 nM.
Next, `CCOc1ccc(Cl)cc1NC(=O)NCc1ccccc1Oc1ccc(C(N)=O)cc1` [Compound of Example 51]: 18.3 nM.
